According to ChEMBL document CHEMBL2029213, “Multiple determinants for selective inhibition of apicomplexan calcium-dependent protein kinase CDPK1” (J Med Chem, 2012):

Tests used:
[1] = target: Proto-oncogene tyrosine-protein kinase Src (Homo sapiens, UniProt P12931)
Description: Inhibition of human SRC by radiometric assay

[2] = target: Tyrosine-protein kinase ABL1 (Homo sapiens, UniProt P00519)
Chain of Tyrosine-protein kinase ABL1 (P00519 whole entry): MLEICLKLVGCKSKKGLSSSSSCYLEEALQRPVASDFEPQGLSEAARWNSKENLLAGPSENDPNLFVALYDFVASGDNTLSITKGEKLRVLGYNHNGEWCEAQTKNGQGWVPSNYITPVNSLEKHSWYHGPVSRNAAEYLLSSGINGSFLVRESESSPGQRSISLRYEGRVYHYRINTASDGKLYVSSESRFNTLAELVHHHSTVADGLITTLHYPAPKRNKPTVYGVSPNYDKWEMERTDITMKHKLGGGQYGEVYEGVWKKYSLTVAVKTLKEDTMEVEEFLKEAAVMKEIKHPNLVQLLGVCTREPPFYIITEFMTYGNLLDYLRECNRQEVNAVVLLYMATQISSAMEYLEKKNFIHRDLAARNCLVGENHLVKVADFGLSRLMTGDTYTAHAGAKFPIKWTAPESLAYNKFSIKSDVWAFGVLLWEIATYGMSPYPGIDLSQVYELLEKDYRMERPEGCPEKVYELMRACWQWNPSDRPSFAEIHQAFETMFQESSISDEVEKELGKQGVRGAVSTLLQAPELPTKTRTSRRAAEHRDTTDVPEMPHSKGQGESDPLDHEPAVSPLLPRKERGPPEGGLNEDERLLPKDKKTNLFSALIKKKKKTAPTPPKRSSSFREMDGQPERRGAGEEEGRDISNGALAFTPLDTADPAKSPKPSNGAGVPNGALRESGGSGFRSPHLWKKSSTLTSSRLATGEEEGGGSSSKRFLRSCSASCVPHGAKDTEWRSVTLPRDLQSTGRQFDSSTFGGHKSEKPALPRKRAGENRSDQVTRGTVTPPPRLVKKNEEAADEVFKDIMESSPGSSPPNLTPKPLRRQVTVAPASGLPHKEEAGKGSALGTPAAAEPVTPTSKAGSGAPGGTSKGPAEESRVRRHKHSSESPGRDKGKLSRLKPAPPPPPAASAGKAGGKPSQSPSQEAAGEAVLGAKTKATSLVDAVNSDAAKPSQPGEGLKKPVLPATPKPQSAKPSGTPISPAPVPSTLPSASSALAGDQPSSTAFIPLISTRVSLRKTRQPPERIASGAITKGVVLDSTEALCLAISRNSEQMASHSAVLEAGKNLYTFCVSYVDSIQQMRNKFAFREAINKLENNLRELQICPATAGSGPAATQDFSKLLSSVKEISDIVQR
Description: Inhibition of human ABL by radiometric assay

Chain of Proto-oncogene tyrosine-protein kinase Src (P12931 2-536 limits assumed): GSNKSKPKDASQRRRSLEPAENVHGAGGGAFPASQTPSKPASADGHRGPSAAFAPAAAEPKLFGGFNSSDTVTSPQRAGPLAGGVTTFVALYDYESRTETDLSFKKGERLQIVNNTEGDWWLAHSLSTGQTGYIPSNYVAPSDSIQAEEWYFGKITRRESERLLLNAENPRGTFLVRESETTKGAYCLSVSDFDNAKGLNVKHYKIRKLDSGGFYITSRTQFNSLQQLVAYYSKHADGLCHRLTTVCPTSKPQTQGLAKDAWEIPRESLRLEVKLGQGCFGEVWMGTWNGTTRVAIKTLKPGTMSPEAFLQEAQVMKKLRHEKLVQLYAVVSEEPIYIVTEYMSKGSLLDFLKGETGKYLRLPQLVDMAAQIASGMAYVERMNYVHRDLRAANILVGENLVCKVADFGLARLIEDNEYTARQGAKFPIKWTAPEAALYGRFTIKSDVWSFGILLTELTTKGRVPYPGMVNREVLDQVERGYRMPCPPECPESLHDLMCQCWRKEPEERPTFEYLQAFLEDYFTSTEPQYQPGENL

Row | Ki [1] [µM] | Ki [2] [µM] | Structure (SMILES)
1 | 0.77 | – | COc1ccc2cc(-c3nn(C(C)C)c4ncnc(N)c34)ccc2c1
2 | > 20 | > 15 | COc1ccc2cc(-c3nn(CC4CCNCC4)c4ncnc(N)c34)ccc2c1
3 | > 20 | > 15 | Nc1ncnc2c1c(-c1cnc3ccccc3c1)nn2CC1CCNCC1
4 | 1.24 | – | CC(C)n1nc(-c2cc3c(Cl)cccc3[nH]2)c2c(N)ncnc21
5 | > 10 | > 10 | Nc1ncnc2c1cnn2CC1CCNCC1
6 | > 10 | 10 | Nc1nc2ccc(C(=O)c3ccccc3)cc2[nH]1
7 | – | 4.6 | COC(=O)Nc1nc2ccc(C(=O)c3ccccc3)cc2[nH]1 [MEBENDAZOLE]

Row | Structure (SMILES) | Ki [1] [µM] | Ki [2] [µM]
8 | CCOc1ccc2cc(-c3nn(CC4CCNCC4)c4ncnc(N)c34)ccc2c1 | > 20 | > 15
9 | Nc1nc2ccc(C(=O)c3ccccc3)cc2n1CC1CCNCC1 | > 10 | > 10
